The values below come from paper PMC10216263, “Favorable Preclinical Pharmacological Profile of a Novel Antimalarial Pyrrolizidinylmethyl Derivative of 4-amino-7-chloroquinoline with Potent In Vitro and In Vivo Activities” (Biomolecules, 2023).

SMILES strings stand for the structures. Where “and” joins values, the source holds several entries; their conditions need not be identical. Equal entries are not always repeated. Where two headings read alike, the source gives them in different places. A value given as a limit tells only on which side of the number the result lay.

The target in one data set is CYP1A2 (Homo sapiens, UniProt P05177). In words: in vitro.
Chain of CYP1A2 (P05177 whole entry): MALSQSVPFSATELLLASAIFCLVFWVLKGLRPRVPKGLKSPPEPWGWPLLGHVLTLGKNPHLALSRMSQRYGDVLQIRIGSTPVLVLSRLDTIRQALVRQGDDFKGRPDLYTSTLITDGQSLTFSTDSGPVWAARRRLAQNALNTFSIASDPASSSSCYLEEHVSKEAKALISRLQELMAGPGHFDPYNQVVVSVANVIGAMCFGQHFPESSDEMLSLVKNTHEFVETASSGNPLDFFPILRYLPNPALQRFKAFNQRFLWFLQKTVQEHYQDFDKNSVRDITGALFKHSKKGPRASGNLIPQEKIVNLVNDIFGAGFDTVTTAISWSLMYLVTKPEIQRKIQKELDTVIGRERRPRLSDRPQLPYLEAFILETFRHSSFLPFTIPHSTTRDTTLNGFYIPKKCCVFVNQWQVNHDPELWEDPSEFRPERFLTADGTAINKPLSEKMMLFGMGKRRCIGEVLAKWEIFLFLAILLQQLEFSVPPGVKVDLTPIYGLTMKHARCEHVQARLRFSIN
A further data set concerns P. yoelii NS. In words: Four-day suppressive Peters' test, oral. It is filed as in vivo, P. yoelii in CD1 mice. To be noted: once a day for 4 days, parasitemia day 4, CD1 mice. As to the method: Groups of five CD1 mice were inoculated i.v., with 4 × 10^6 infected erythrocytes/mice. Compounds, dissolved in standard suspending formula (SSV) (0.5% sodium carboxymethylcellulose, 0.5% benzyl alcohol, 0.4% Tween 80, and 0.9% NaCl), were administered once a day for 4 days via oral gavage, starting two hours post-infection. […] Parasitemia was evaluated using microscopic examination of Giemsa-stained blood films taken on day four, processed using MICROSOFT® EXCEL spreadsheets (Microsoft Corp., Redmond, WA, USA), and expressed as percentages of inhibition from the arithmetic mean parasitemia of each group in relation to the untreated group. ED50 and ED90 values were calculated using GraphPad Prism 6 (GraphPad Software Inc., La Jolla, CA, USA).

The test system of data set [1] is P. falciparum IPC5202 (ARM-R). In words: microbe, parasite or virus in culture. The class given is cell-based. As to the method:
The strains D10 and 3D7 (CQ-Sensitive), and V1-S (CQ, pyrimethamine and cycloguanil resistant), K1 (CQ and PYR resistant), W2 and FCR3 (CQ-Resistant), TM90C2A (CQ, MQ, PYR and ATQ resistant) and IPC 5202 (MR4-1240, artemisinin-resistant, K13 mutation, and R539T) of Pf were cultured in vitro as described by Trager and Jensen with minor modifications. Briefly, parasites were maintained at 5% hematocrit (human type A-positive red blood cells) in RPMI 1640 (EuroClone, S.p.A. Milan, Italy) medium with the addition of 10% heat inactivate human serum or 1% AlbuMax (In vitrogen, Milan, Italy), 20 mM Hepes and 2 mM glutamine (Euroclone), at 37 °C in a standard gas mixture consisting of 1–3% O2, 5% CO2, and 92–94% N2.
Compounds were dissolved in either water or DMSO and then diluted with medium to achieve the required concentrations (final non-toxic DMSO concentration <1%). Asynchronous cultures of Pf with parasitaemia of 1–1.5% and 1% final hematocrit were aliquoted into 96-well flat-bottom microplates (Corning, Glendale, AZ, USA) with serial dilutions of test compounds and incubated for 72 h at 37 °C. Parasite growth was determined spectrophotometrically (OD650) by measuring the activity of the parasite lactate dehydrogenase (pLDH) according to a modified version of the method of Makler in control and drug-treated cultures.

A further data set deals with P. falciparum W2 (CQ-R). More on the design: method as in PMID 18538567. To be noted: 72 h incubation, pLDH method, mean of 3 experiments; cited from earlier work.
Data set [2] relates to beta-hematin (malaria pigment) formation. More on the design: method as in PMID 18538567. The conditions noted are these: in vitro BHIA; cited from earlier work.
The next data set addresses CYP2C19 (Homo sapiens, UniProt P33261). Description: in vitro.
In a further data set the target is CYP2C9 (Homo sapiens, UniProt P11712). In words: in vitro.
Chain of CYP2C9 (P11712 whole entry): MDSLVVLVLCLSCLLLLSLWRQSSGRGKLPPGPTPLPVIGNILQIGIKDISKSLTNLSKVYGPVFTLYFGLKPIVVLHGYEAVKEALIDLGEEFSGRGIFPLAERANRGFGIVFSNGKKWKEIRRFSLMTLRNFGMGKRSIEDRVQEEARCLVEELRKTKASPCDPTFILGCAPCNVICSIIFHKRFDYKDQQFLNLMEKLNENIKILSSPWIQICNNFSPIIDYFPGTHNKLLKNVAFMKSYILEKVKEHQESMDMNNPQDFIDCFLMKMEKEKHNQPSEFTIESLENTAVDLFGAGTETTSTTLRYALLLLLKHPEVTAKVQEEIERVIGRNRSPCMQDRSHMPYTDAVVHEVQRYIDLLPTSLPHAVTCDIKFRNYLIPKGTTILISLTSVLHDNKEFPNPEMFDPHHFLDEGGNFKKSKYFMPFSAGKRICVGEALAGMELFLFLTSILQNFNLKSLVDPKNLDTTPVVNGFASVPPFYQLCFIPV
The subject of a further data set is P. berghei ANKA. In words: Oral curative activity against P. berghei ANKA. The class given is in vivo, P. berghei in mice.

Chain of CYP2C19 (P33261 whole entry): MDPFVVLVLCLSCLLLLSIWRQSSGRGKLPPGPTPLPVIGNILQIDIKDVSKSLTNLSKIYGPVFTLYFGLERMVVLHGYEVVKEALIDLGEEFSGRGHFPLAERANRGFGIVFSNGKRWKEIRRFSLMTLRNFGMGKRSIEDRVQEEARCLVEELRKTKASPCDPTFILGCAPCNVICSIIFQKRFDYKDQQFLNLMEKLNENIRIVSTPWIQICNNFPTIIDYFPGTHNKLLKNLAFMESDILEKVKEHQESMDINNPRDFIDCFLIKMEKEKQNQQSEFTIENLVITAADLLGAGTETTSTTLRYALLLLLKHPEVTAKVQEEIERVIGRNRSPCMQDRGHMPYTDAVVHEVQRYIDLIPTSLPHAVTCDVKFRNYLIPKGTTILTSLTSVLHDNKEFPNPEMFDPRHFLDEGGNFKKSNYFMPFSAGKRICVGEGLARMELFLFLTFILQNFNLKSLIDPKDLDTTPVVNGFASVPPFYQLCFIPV

`Clc1ccc2c(NCC34CCCN3CCC4)ccnc2c1` [MG3, 7-Chloro-N-((hexahydro-1H-pyrrolizin-7a-yl)methyl)quinolin-4-amine]: the inhibition at 3 µM is 12.1 ± 1.2% against CYP1A2, less than 3% on CYP2C19 and 8.8 ± 2.2% against CYP2C9. In the data set on P. yoelii NS (Plasmodium yoelii, 96 h, read-out: ED50 (95% CI) Mean), the ED50 is 5.01 mg/kg. In addition, the “ED90 (95% CI) Mean” value with P. yoelii NS was 8.98 (6.70–12.02) mg/kg. Moreover, the IC50 in data set [1] (Plasmodium falciparum, 72 h, read-out: P. falciparum IC50 nM, IPC5202 (ARM-R), 72 h incubation, pLDH method) is less than 15 nM; in data set [1] (read-out: P. falciparum IC50 nM, IPC5202 (ARM-R), 72 h incubation, pLDH method), 10 nM and 10.7 nM; in the data set with P. falciparum W2 (CQ-R) it was 28.9 nM. Also, the “inhibition of beta-hematin formation” value in data set [2] is “able to inhibit the formation of beta-hematin”. Moreover, in the data set on P. berghei ANKA (30 mg/kg for 3 times), the “prolonged mice survival compared to CQ, amodiaquine or artesunate” value is “approximately 50%”. Moreover, the curative activity result in the data set with P. berghei ANKA (30 mg/kg for 3 times, P. berghei-infected mice) is reported as “not curative”. In addition, the “% Suppression of parasitaemia (on day 4 post infection)” value in the data set on P. berghei ANKA (oral dose 3 x 30 mg/kg) stood at 100%. Further, the “Average survival (days) after infection” value in the data set with P. berghei ANKA (oral dose 3 x 30 mg/kg, individual values in brackets) is 22 (17, 23, 23, 24, 24) days.

For orientation: inhibition means how much of the control response was suppressed. By ED50 is commonly meant the dose at which the effect has come halfway, by size or by number of responders. As usually defined, the IC50 is the concentration needed to halve the response being measured.
